Experimental data as given in patent US7199131B2, “Sulfonamide and sulfamide substituted imidazoquinolines” (3M Innovative Properties Company, priority 2001, dated 2007).
Where a name gives a salt, the structure may show the parent alone.

What was measured:
[1] = test system: tumor necrosis factor (α); test: Cytokine Induction in Human Cells: tumor necrosis factor (α) secreted by PBMCs, ELISA; format: cell-based; settings: PBMC, incubated 18 to 24 hours, lowest concentration found to induce tumor necrosis factor
From the text: (§1) An in vitro human blood cell system was used to assess cytokine induction by compounds of the invention. Activity is based on the measurement of interferon and tumor necrosis factor (α) (IFN and TNF, respectively) secreted into culture media as described by Testerman et. al. In “Cytokine Induction by the Immunomodulators Imiquimod and S-27609”, Journal of Leukocyte Biology, 58, 365–372 (September, 1995).
(§2) Whole blood is collected by venipuncture into EDTA vacutainer tubes from healthy human donors. Peripheral blood mononuclear cells (PBMCs) are separated from whole blood by density gradient centrifugation using Histopaque®-1077 (Sigma Chemicals, St. Louis, Mo.). The PBMCs are suspended at 3–4×10^6 cells/mL in RPMI 1640 medium containing 10% fetal bovine serum, 2 mM L-glutamine and 1% penicillin/streptomycin solution (RPMI complete). The PBMC suspension is added to 48 well flat bottom sterile tissue culture plates (Costar, Cambridge, Mass. or Becton Dickinson Labware, Lincoln Park, N.J.) containing an equal volume of RPMI complete media containing test compound.
(§3) The compounds are solubilized in dimethyl sulfoxide (DMSO). The DMSO concentration should not exceed a final concentration of 1% for addition to the culture wells.
(§4) The solution of test compound is added at 60 μM to the first well containing RPMI complete and serial (three fold or ten fold) dilutions are made. The PBMC suspension is then added to the wells in an equal volume, bringing the test compound concentrations to the desired range. The final concentration of PBMC suspension is 1.5–2×10^6 cells/mL. The plates are covered with sterile plastic lids, mixed gently and then incubated for 18 to 24 hours at 37° C. in a 5% carbon dioxide atmosphere.
(§5) Following incubation the plates are centrifuged for 5–10 minutes at 1000 rpm (˜200×g) at 4° C. The cell culture supernatant is removed with a sterile polypropylene pipette and transferred to sterile polypropylene tubes. Samples are maintained at −30 to −70° C. until analysis. The samples are analyzed for interferon (α) and tumor necrosis factor (α) by ELISA
Tumor necrosis factor (α) (TNF) concentration is determined using ELISA kits available from Genzyme, Cambridge, Mass.; R&D Systems, Minneapolis, Minn.; or Pharmingen, San Diego, Calif.
(§6) The table below lists the lowest concentration found to induce interferon and the lowest concentration found to induce tumor necrosis factor for each compound.

[2] = test system: interferon (α); test: Cytokine Induction in Human Cells: interferon (α) secreted by PBMCs, ELISA; format: cell-based; settings: PBMC, incubated 18 to 24 hours, lowest concentration found to induce interferon
From the text: as §1, §2, §3, §4, §5
Interferon (α) concentration is determined by ELISA using a Human Multi-Species kit from PBL Biomedical Laboratories, New Brunswick, N.J.
as §6

melting point [°C] | Compound | minimal effective concentration [1] [µM] | minimal effective concentration [2] [µM]
180.6 to 182 | CCc1nc2c(N)nc3ccccc3c2n1CCCCNS(=O)(=O)c1ccccc1 [Example 232, N-[4-(4-amino-2-ethyl-1H-imidazo[4,5-c]quinolin-1-yl)butyl]benzenesulfonamide] | 1.11 | 0.12
158.8 to 160.8 | CCCc1nc2c(N)nc3ccccc3c2n1CCCCNS(=O)(=O)c1ccccc1 [Example 233, N-[4-(4-amino-2-propyl-1H-imidazo[4,5-c]quinolin-1-yl)butyl]benzenesulfonamide] | 1.11 | 0.37
84.8 to 85.4 | CCCCCCc1nc2c(N)nc3ccccc3c2n1CCCCNS(=O)(=O)c1ccccc1 [Example 234, N-[4-(4-amino-2-hexyl-1H-imidazo[4,5-c]quinolin-1-yl)butyl]benzenesulfonamide] | 1.11 | 1.11
186.5 to 187.9 | CCCc1nc2c(N)nc3ccccc3c2n1CCCCNS(C)(=O)=O [Example 235, N-[4-(4-amino-2-propyl-1H-imidazo[4,5-c]quinolin-1-yl)butyl]methanesulfonamide] | 1.11 | 0.04
215.4 to 216 | Cc1nc2c(N)nc3ccccc3c2n1CCCCNS(=O)(=O)c1ccccc1 [Example 237, N-[4-(4-amino-2-methyl-1H-imidazo[4,5-c]quinolin-1-yl)butyl]benzenesulfonamide] | 0.04 | 0.37
239.2 to 240.8 | CCCCc1nc2c(N)nc3ccccc3c2n1CCCNS(C)(=O)=O [Example 239, N-[3-(4-amino-2-butyl-1H-imidazo[4,5-c]quinolin-1-yl)propyl]methanesulfonamide] | 1.11 | 0.01
210.5 to 212 | CCCCc1nc2c(N)nc3ccccc3c2n1CCCNS(=O)(=O)c1ccccc1 [Example 240, N-[3-(4-amino-2-butyl-1H-imidazo[4,5-c]quinolin-1-yl)propyl]benzenesulfonamide] | 3.33 | 0.37
170.2 to 171.1 | CCCCCCc1nc2c(N)nc3ccccc3c2n1CCCCNS(C)(=O)=O [Example 241, N-[4-(4-amino-2-hexyl-1H-imidazo[4,5-c]quinolin-1-yl)butyl]methanesulfonamide] | 1.11 | 0.12
146 to 149 | COCCc1nc2c(N)nc3ccccc3c2n1CCCCCCCCNS(=O)(=O)c1ccccc1 [Example 242, N-{8-[4-amino-2-(2-methoxyethyl)-1H-imidazo[4,5-c]quinolin-1-yl]octyl}benzenesulfonamide] | 0.01 | 0.01
121 to 124 | CCCCc1nc2c(N)nc3ccccc3c2n1CCCCCCCCNS(C)(=O)=O [Example 244, N-[8-(4-amino-2-butyl-1H-imidazo[4,5-c]quinolin-1-yl)octyl]methanesulfonamide] | 0.01 | 0.01
216.5 to 217.5 | CCCCc1nc2c(N)nc3ccccc3c2n1CCCNS(=O)(=O)c1cccc2c(N(C)C)cccc12 [Example 245, N-[3-(4-amino-2-butyl-1H-imidazo[4,5-c]quinolin-1-yl)propyl]-5-(dimethylamino)naphthalene-1-sulfonamide] | > 30 | 3.33
197 to 198.5 | CCCCc1nc2c(N)nc3ccccc3c2n1CCCNS(=O)(=O)c1ccc(C)cc1 [Example 246, N-[3-(4-amino-2-butyl-1H-imidazo[4,5-c]quinolin-1-yl)propyl]-4-methylbenzenesulfonamide] | 3.33 | 1.11
143 to 144 | CCCCc1nc2c(N)nc3ccccc3c2n1CCCCCCCCNS(=O)(=O)c1ccccc1 [Example 248, N-[8-(4-amino-2-butyl-1H-imidazo[4,5-c]quinolin-1-yl)octyl]benzenesulfonamide] | 0.01 | 0.12
149 to 151 | COCCc1nc2c(N)nc3ccccc3c2n1CCCNS(=O)(=O)c1ccccc1 [Example 249, N-(3-[4-amino-2-(2-methoxyethyl)-1H-imidazo[4,5-c]quinolin-1-yl]propyl)benzenesulfonamide] | 1.11 | 0.01
189 to 191 | COCCc1nc2c(N)nc3ccccc3c2n1CCCNS(=O)(=O)c1ccc(C)cc1 [Example 253, N-{3-[4-amino-2-(2-methoxyethyl)-1H-imidazo[4,5-c]quinolin-1-yl]propyl}-4-methylbenzenesulfonamide] | 0.12 | 0.04

Continued, molecule first:

Compound | melting point [°C] | minimal effective concentration [1] [µM] | minimal effective concentration [2] [µM]
CCc1nc2c(N)nc3ccccc3c2n1CCCCNS(C)(=O)=O [Example 236, N-[4-(4-amino-2-ethyl-1H-imidazo[4,5-c]quinolin-1-yl)butyl]methanesulfonamide] | – | 0.12 | 0.01
Cc1nc2c(N)nc3ccccc3c2n1CCCCNS(C)(=O)=O [Example 238, N-[4-(4-amino-2-methyl-1H-imidazo[4,5-c]quinolin-1-yl)butyl]methanesulfonanide] | 229.4 to 230.5 | 0.37 | 0.04
COCCc1nc2c(N)nc3ccccc3c2n1CCCCCCCCNS(C)(=O)=O [Example 243, N-{8-[4-amino-2-(2-methoxyethyl)-1H-imidazo[4,5-c]quinolin-1-yl]octyl}methanesulfonamide] | 109 to 110 | 0.01 | 0.01
COCCc1nc2c(N)nc3ccccc3c2n1CCCNS(C)(=O)=O [Example 247, N-{3-[4-amino-2-(2-methoxyethyl)-1H-imidazo[4,5-c]quinolin-1-yl]propyl}methanesulfonamide] | 193 to 194 | 0.01 | 0.01
CCCCCc1nc2c(N)nc3ccccc3c2n1CCCCNS(C)(=O)=O [Example 250, N-[4-(4-amino-2-pentyl-1H-imidazo[4,5-c]quinolin-1-yl)butyl]methanesulfonamide] | – | 0.12 | 0.01
CCCCCc1nc2c(N)nc3ccccc3c2n1CCCCNS(=O)(=O)c1ccccc1 [Example 251, N-[4-(4-amino-2-pentyl-1H-imidazo[4,5-c]quinolin-1-yl)butyl]benzenesulfonamide] | – | 10 | 0.12
CS(=O)(=O)NCCCCCCCCn1cnc2c(N)nc3ccccc3c21 [Example 252, N-[8-(4-amino-1H-imidazo[4,5-c]quinolin-1-yl)octyl]methanesulfonamide] | 153 to 155 | 1.11 | 0.37
CCCCCc1nc2c(N)nc3c(c2n1CCCCNS(C)(=O)=O)CCCC3 [Example 254, N-[4-(4-amino-2-pentyl-6,7,8,9-tetrahydro-1H-imidazo[4,5-c]quinolin-1-yl)butyl]methanesulfonamide] | 167 to 167.8 | 1.11 | 0.01
CCOCc1nc2c(N)nc3ccccc3c2n1CCCNS(C)(=O)=O [Example 255, N-{3-[4-amino-2-(ethoxymethyl)-1H-imidazo[4,5-c]quinolin-1-yl]propyl}methanesulfonamide] | 208.2 to 209.6 | 3.33 | 0.12
COCCc1nc2c(N)nc3ccccc3c2n1CC(C)(C)CNS(C)(=O)=O [Example 256, N-{3-[4-amino-2-(2-methoxyethyl)-1H-imidazo[4,5-c]quinolin-1-yl]-2,2-dimethylpropyl}methanesulfonamide] | 204 to 206 | 0.04 | 0.01
Cc1nc2c(N)nc3c(c2n1CCCCNS(C)(=O)=O)CCCC3 [Example 263, N-[4-(4-amino-2-methyl-6,7,8,9-tetrahydro-1H-imidazo[4,5-c]quinolin-1-yl)butyl]methanesulfonamide hydrochloride] | – | > 30 | 0.12
